Assay results from article PMC6364417, “Kinase inhibitor library screening identifies synergistic drug combinations effective in sensitive and resistant melanoma cells” (Journal of Experimental & Clinical Cancer Research : CR, 2019).

Key:
Assay in all cases: Kinase inhibitor library screening, PrestoBlue cell viability, 1 or 10 μM, 72 h
501Mel cells (parental) = settings: 501Mel Parental, in %
Procedure, shortened: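 Treatment: 72 h with inhibitor. Detection: PrestoBlue, plate reader. Output: viability as % untreated control. Replicates: duplicate minimum. Lines: parental plus Vemurafenib- or Dabrafenib-resistant derivatives.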

IGR37 cells (parental) = settings: IGR37 Parental, in %; for Cell viability in kinase inhibitor library screening, IGR37 Parental, 1μΜ / Cell viability in kinase inhibitor library screening, IGR37 Parental, 10μΜ: 72 h
[1] = system: A375-XP cells (Vemurafenib-resistant); settings: A375 XP; for Cell viability in kinase inhibitor library screening, A375 XP, 1μΜ / Cell viability in kinase inhibitor library screening, A375 XP, 10μΜ: 72 h; for cell viability (kinase inhibitor library screening): in %
A375 cells (parental) = settings: A375 Parental; for Cell viability in kinase inhibitor library screening, A375 Parental, 10μΜ / Cell viability in kinase inhibitor library screening, A375 Parental, 1μΜ: 72 h; for cell viability (kinase inhibitor library screening): in %
[2] = system: A375-GP cells (Dabrafenib-resistant); settings: A375 GP; for Cell viability in kinase inhibitor library screening, A375 GP, 1μΜ / Cell viability in kinase inhibitor library screening, A375 GP, 10μΜ: 72 h; for cell viability (kinase inhibitor library screening): in %
[3] = system: IGR37-XP cells (Vemurafenib-resistant); settings: IGR37 XP; for Cell viability in kinase inhibitor library screening, IGR37 XP, 10μΜ / Cell viability in kinase inhibitor library screening, IGR37 XP, 1μΜ: 72 h; for Cell viability in kinase inhibitor library screening, IGR37 XP, 1μΜ / cell viability (kinase inhibitor library screening): in %
[4] = system: 501Mel-GP cells (Dabrafenib-resistant); settings: 501Mel GP, in %; for Cell viability in kinase inhibitor library screening, 501Mel GP, 1μΜ / Cell viability in kinase inhibitor library screening, 501Mel GP, 10μΜ: 72 h
[5] = system: IGR37-GP cells (Dabrafenib-resistant); settings: IGR37 GP; for Cell viability in kinase inhibitor library screening, IGR37 GP, 10μΜ / Cell viability in kinase inhibitor library screening, IGR37 GP, 1μΜ: 72 h; for Cell viability in kinase inhibitor library screening, IGR37 GP, 1μΜ / cell viability (kinase inhibitor library screening): in %
[6] = system: 501Mel-XP cells (Vemurafenib-resistant); settings: 501Mel XP, in %; for Cell viability in kinase inhibitor library screening, 501Mel XP, 1μΜ / Cell viability in kinase inhibitor library screening, 501Mel XP, 10μΜ: 72 h

Row | SMILES | Cell viability in kinase inhibitor library screening, 501Mel Parental, 10μΜ (501Mel cells (parental); 10μΜ, 72 h) | Cell viability in kinase inhibitor library screening, IGR37 Parental, 1μΜ (IGR37 cells (parental)) | Cell viability in kinase inhibitor library screening, IGR37 Parental, 10μΜ (IGR37 cells (parental); 10μΜ) | Cell viability in kinase inhibitor library screening, A375 XP, 1μΜ ([1]; 1μΜ) | Cell viability in kinase inhibitor library screening, A375 XP, 10μΜ ([1]; 10μΜ) | Cell viability in kinase inhibitor library screening, A375 Parental, 10μΜ (A375 cells (parental); 10μΜ) | Cell viability in kinase inhibitor library screening, A375 Parental, 1μΜ (A375 cells (parental); 1μΜ) | Cell viability in kinase inhibitor library screening, A375 GP, 1μΜ ([2]; 1μΜ) | Cell viability in kinase inhibitor library screening, A375 GP, 10μΜ ([2]; 10μΜ) | Cell viability in kinase inhibitor library screening, IGR37 XP, 10μΜ ([3]; 10μΜ) [%] | Cell viability in kinase inhibitor library screening, IGR37 XP, 1μΜ ([3]; 1μΜ) | Cell viability in kinase inhibitor library screening, 501Mel GP, 1μΜ ([4]; 1μΜ) | Cell viability in kinase inhibitor library screening, 501Mel GP, 10μΜ ([4]; 10μΜ) | Cell viability in kinase inhibitor library screening, IGR37 GP, 10μΜ ([5]; 10μΜ) [%] | Cell viability in kinase inhibitor library screening, IGR37 GP, 1μΜ ([5]; 1μΜ) | Cell viability in kinase inhibitor library screening, 501Mel XP, 1μΜ [6] | Cell viability in kinase inhibitor library screening, 501Mel XP, 10μΜ ([6]; 10μΜ) | further results
1 | COc1ccc(-c2ccc3c(N4CCOCC4)nc(N4C[C@@H](C)O[C@@H](C)C4)nc3n2)cc1CO [Ku-0063794] | 16.9 | 73.4 | 23.7 | 54.3 | 19.7 | 24.0 | 63.8 | 63.9 | 20.8 | 12.3 | 68.5 | 56.6 | 13.4 | 36.1 | 76.2 | 47.2 | 6.9 | Cell viability in kinase inhibitor library screening, 501Mel Parental, 1μΜ (501Mel cells (parental); 1μΜ, 72 h): 71.5
2 | c1ccc2c(-c3cnn4cc(-c5ccc(N6CCNCC6)cc5)cnc34)ccnc2c1 [LDN193189] | – | – | – | – | – | – | – | – | – | – | – | – | – | – | – | – | – | cell viability (kinase inhibitor library screening) (501Mel cells (parental); 1μΜ): 119.0; cell viability (kinase inhibitor library screening) (501Mel cells (parental); 10μΜ): 0.949; cell viability (kinase inhibitor library screening) (IGR37 cells (parental); 10μΜ): 0.221; cell viability (kinase inhibitor library screening) ([1]; 1μΜ): 98.9; cell viability (kinase inhibitor library screening) ([1]; 10μΜ): 2.6; cell viability (kinase inhibitor library screening) (A375 cells (parental); 1μΜ): 104.5; cell viability (kinase inhibitor library screening) (A375 cells (parental); 10μΜ): 1.7; cell viability (kinase inhibitor library screening) ([2]; 1μΜ): 104.8; cell viability (kinase inhibitor library screening) ([2]; 10μΜ): 3.4; cell viability (kinase inhibitor library screening) ([3]; 1μΜ): 103.7; cell viability (kinase inhibitor library screening) ([3]; 10μΜ): 3.2; cell viability (kinase inhibitor library screening) ([4]; 1μΜ): 129.1; cell viability (kinase inhibitor library screening) ([4]; 10μΜ): 1.7; cell viability (kinase inhibitor library screening) ([5]; 1μΜ): 94.5; cell viability (kinase inhibitor library screening) ([5]; 10μΜ): 4.6; cell viability (kinase inhibitor library screening) ([6]; 10μΜ): 0.8
3 | O=c1cc(N2CCOCC2)oc2c(-c3ccccc3)cccc12 [LY294002] | 86.8 | 106.7 | 84.5 | 104.6 | 90.9 | 80.4 | 105.7 | 104.5 | 79.2 | 46.1 | 100.0 | 104.8 | 77.9 | 72.8 | 100.0 | 91.4 | 68.2 | –
